Data set [1] in a line: First in Human single ascending dose phase I study: safety and tolerability. The format is in vivo. How it is done:
(§1) This study was a randomized, double-blind, single center, placebo-controlled, single ascending dose (SAD), phase I study to assess the safety, tolerability, PK (pharmacokinetics) and PD (pharmacodynamics) of the compound of formula I in 36 healthy male volunteers (HV's). 6 dose cohorts of 6 subjects were evaluated using a 4:2 ratio (active:placebo). The compound of formula I was delivered to the lungs of HV's using the RS01 Monodose Dry Powder Inhaler (Plastiape) at the following 6 doses: 0.15 mg, 1.5 mg, 3 mg, 10 mg, 20 mg and 50 mg. The 0.15 mg, 1.5 mg and 3 mg dose was a 3% w/w lactose blend, whereas the 10 mg, 20 mg and 50 mg dose was formulated as neat material. The specific capsule filling weights were 5 mg for the 0.15 mg dose, 50 mg for the 1.5 mg dose, 5 mg for the 10 mg dose and 50 mg for the 50 mg dose. HV's were housed overnight and vital signs, EKG, physical exam, urinalysis and laboratory bloods followed for 14 days. PK blood sampling was taken prior to dosing and then at intervals up to 48 hrs post-dose. Plasma samples for drug concentration measurements were analyzed by the Bioanalytical Unit at Simbec (UK). PK variables were determined using the non-compartmental analysis option in the software WinNONLIN 6.3 from Certara based in Princeton, N.J. 08540 (www.certara.com).

The target of the next data set is Galectin-3 (Homo sapiens, UniProt P17931). The note with it: 3 mg inhaled dose; from Cmax, mouse lung/circulation ratio and ex-vivo data in human derived macrophages.
Chain of Galectin-3 (P17931 whole entry): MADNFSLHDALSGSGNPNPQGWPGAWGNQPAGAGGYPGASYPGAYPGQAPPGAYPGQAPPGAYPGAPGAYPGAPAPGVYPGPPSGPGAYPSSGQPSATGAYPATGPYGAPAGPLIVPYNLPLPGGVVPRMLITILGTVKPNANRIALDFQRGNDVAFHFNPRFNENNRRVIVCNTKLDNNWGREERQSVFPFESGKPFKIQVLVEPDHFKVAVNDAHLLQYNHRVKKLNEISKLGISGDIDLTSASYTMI
Data set [2] can be described thus: GLP toxicokinetic studies, murine intravenous dosing. The format is in vivo.
Data set [3] can be described thus: Radioisotope studies of lung deposition in mice. The format is in vivo.
A short description of data set [4]: Particle size (MMAD) of the dry powder used in the study. The format is physicochemical. To be noted: dry powder of the study in the Experimental section. On the procedure: When the compound of formula (I) is formulated as a dry powder it may be present in a suitable particle size selected from a mean mass aerodynamic diameter (MMAD) between 0.1 and 20 μm, such as a MMAD between 0.5 and 10 μm, such as between 1 and 5 μm, typically between 2 and 3 μm. In the study described in the Experimental section below the MMAD was measured to 2.5 μm.

Data set [5] can be described thus: First in Human single ascending dose phase I study: plasma pharmacokinetics after inhalation. The format is in vivo. On the procedure: as §1

For `OC[C@H]1O[C@@H](S[C@@H]2O[C@H](CO)[C@H](O)[C@H](n3cc(-c4cccc(F)c4)nn3)[C@H]2O)[C@H](O)[C@@H](n2cc(-c3cccc(F)c3)nn2)[C@H]1O` [compound of formula I, bis (3-deoxy-3-(3-fluorophenyl-1H-1,2,3-triazol-1-yl)-β-D-galactopyranosyl)-sulfane], the tolerability result in data set [1] (healthy male volunteers, single inhaled dose, all 6 doses (0.15 mg to 50 mg), RS01 dry powder inhaler) is listed as “extremely well tolerated”. Besides, in data set [1] (healthy male volunteers, headache, cough and dose-related parageusia (neat blend only), self-limiting), the “adverse events (severity)” value is “only mild in nature”. Also, in data set [1] (up to 2 weeks post-dose), the “changes from baseline in EKG, vital signs, bloods and urinalysis” value is “no significant changes from baseline”. The “local concentration in the lung in man in excess of that required to suppress Galectin-3 in lung target cells” value on Galectin-3 came out at 2 fold. Further, in data set [2], the “fraction of compound found in the feces” value is listed as approximately 90%. The “concentration in the lung relative to the circulation” value in data set [3] is “fifty times greater”. The “mean mass aerodynamic diameter (MMAD)” value in data set [4] is 2.5 μm. In addition, in data set [5] (inhaled single ascending doses 0.15-50 mg), the “dose dependence of drug concentrations based on Cmax and AUC” value is reported as “exhibited dose proportionality”. The time to peak (Tmax) in data set [5] (male, human, inhaled or intranasal, inhaled single dose, independent of dose) was in the range of 0.8 to 3 h. In data set [5] (male, human, inhaled or intranasal, inhaled single dose, read-out: t½ (converted)), the half-life is 12 h.

Broadly, the Tmax is the time from dosing to the highest level.

Source of the values: patent US11406655B2, “Once-daily treatment of pulmonary fibrosis” (Galecto Biotech AB, priority 2015, dated 2022).
